From US8273775B2, “Non-steroidal brassinosteroid mimetic” (priority 2006, dated 2012)
pKd: −log10 of the molar value.

How the values were obtained:
[1] = molecular target: T1, GST-BIN2 (Arabidopsis thaliana, UniProt Q39011); experiment: SPR analysis of binding to immobilized GST-BIN2
T1 sequence (Q39011 1-380): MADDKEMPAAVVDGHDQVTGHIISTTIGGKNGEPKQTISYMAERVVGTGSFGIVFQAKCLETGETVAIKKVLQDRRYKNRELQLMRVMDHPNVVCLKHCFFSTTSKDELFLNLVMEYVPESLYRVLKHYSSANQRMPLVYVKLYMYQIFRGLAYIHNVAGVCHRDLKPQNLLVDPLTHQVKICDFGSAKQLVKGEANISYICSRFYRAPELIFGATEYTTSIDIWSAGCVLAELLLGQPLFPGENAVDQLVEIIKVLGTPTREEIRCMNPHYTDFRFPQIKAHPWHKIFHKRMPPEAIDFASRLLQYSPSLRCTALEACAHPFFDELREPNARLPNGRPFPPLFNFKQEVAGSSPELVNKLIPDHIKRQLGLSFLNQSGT
Protocol: FIG. 13: Abrasin directly interacts with BIN2. SPR sensorgrams for abrasin binding to GST-BIN2 after injection of different abrasin concentrations as indicated. […] Reference and blank data are subtracted. The experiment was performed in triplicate. Biacore T100 was used to analyze interaction of abrasion with BIN2. Using amine coupling, purified GST-BIN2 was immobilized in the flow cell of a Series S CM5 Sensor Chip (Research Grade, Biacore AB). HBS-EP (Biacore AB) was used as running buffer, flow rate was set at 5 μl/min. The surface of the chip was activated by injecting a mixture of EDC (0.2 M) and NHS (0.05 M) for 10 min. Subsequently, 20 μg/ml GST-BIN2 in 10 mM sodium acetate buffer (pH 6.0) was injected for 20 min. The immobilization level of GST-BIN2 was≈20,000 RU. The chip was then flushed with 1 M ethanolamine (pH 8.5) for 10 min to deactivate the surface. A flow cell treated with a cycle of activation and deactivation without immobilized ligand was used as a reference. […] Different concentrations of abrasin were injected at a flow rate of 30 μl/min over the reference and the GST-BIN2 flow cell for 90 s, followed by 180 s of buffer flow (dissociation phase). Zero concentration samples were used as blanks. The flow cell temperature was set to 25° C.

[2] = molecular target: T2, ASKθ (group III) (Arabidopsis thaliana, UniProt Q96287); experiment: ASK kinase assay with MBP as substrate, ASKθ; type: biochemical; details: 10 μM abrasin; read-out: residual activity
T2 sequence (Q96287 1-472): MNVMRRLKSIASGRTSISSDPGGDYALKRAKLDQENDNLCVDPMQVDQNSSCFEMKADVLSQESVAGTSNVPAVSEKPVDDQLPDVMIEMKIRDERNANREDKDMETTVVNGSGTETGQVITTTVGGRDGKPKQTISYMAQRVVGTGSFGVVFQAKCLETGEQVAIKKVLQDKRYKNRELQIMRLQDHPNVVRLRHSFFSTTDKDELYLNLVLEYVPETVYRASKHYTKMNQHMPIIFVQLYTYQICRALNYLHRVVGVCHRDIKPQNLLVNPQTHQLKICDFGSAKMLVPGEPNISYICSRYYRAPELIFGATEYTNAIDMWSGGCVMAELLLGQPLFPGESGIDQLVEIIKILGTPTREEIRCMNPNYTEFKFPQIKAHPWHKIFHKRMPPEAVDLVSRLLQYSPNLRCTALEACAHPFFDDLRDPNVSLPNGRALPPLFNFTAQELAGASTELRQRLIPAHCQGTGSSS
Protocol: Coomassie staining was used as a loading control. b, Autoradiography of kinase assays with nine ASKs with MBP as a substrate in the presence or absence of 10 μM abrasin.
For in vitro kinase assays, MBP, MBP-BES1, and MBP-bes1 (20 ng each) were incubated with GST-BIN2 or GST-BRI1 kinase (200 ng each) in 20 μl of kinase buffer (20 mM Tris [pH 7.5], 100 mM NaCl, and 12 mM MgCl2) and 10 μCi ^32P-γATP. After incubation at 37° C. for 40 min, the reactions were stopped by adding 20 μl of 2×SDS buffer and boiling at 94° C. for 5 min. Proteins were resolved by a PAGE gel and phosphorylation was detected by exposing the dried gel to X-ray film. Proteins from 35S::bes1-GFP transgenic plants were used for phosphatase (CIP) treatments as described (Fankhauser et al., 1999).
Besides BIN2, nine additional GSK-3 kinases (also designated ASKs for Arabidopsis SHAGGY-related kinases) divided into four subgroups (I-IV) have been identified in Arabidopsis (Jonak and Hirt, 2002; Yoo et al. 2006). To determine the specificity of abrasin, its effect on the kinase activity of all ASKs was analyzed with myelin basic protein (MBP) as a general substrate.

O=C(O)CCC(=O)Nc1ccc(Br)cn1 [abrasin, 4-[(5-bromo-2-pyridinyl)amino]-4-oxobutanoic acid]
concentration from which a clear SPR response starts [1]: ≥ 10 µM | pKd ([1]; 1:1 interaction model, 25° C.): 3.70 | kd ([1]; 1:1 interaction model, 25° C.): 0.081 s⁻¹ | kon ([1]; 1:1 interaction model, 25° C., read-out: ka): 407 M⁻¹ s⁻¹ | remaining activity at 10 µM [2]: 20%
